The subject of series [1] is HepG2 cells. Briefly: HepG2 toxicity assay. It counts as cell-based. The settings on record: host cell toxicity.
Series [2] in a line: Human plasma protein binding. It counts as in vitro ADME. The following applies: Table 1.
The nature of series [3]: Mouse pharmacokinetics, plasma and brain exposure. It is filed as in vivo, female BALB/c mice. The settings on record: 10 mg/kg i.p., for 4 h.

These results are taken from article PMC5346991 (ACS Medicinal Chemistry Letters, 2017).

In the case of `COc1ccc(Nc2ccnc3ccc(-c4ccc(S(=O)(=O)N5CCOCC5)cc4)cc23)cc1C` [Compound 13k], the “HepG2 TC50” value in series [1] is listed as 9.0 µM.
As for `O=S(=O)(c1ccc(-c2ccc3nccc(Nc4ccc(OCc5cccc(F)c5)cc4)c3c2)cc1)N1CCOCC1` [Compound 3], the “protein binding (% free)” value in series [2] is on record as below 0.03 % free.
For `O=S(=O)(c1ccc(-c2ccc3nccc(Nc4ccncn4)c3c2)cc1)N1CCOCC1` [Compound 13j, 6-(4-(morpholinosulfonyl)phenyl)-N-(pyrimidin-4-yl)quinolin-4-amine], the “plasma exposure relative to the EC50” value in series [3] is above 120 fold.
